Here are results for two molecules from the NIST ThermoML archive (doi:10.1021/acs.jced.8b00451).

For this series the following is noted: Liquid, Ebulliometric method (Recirculating still).

± gives the expanded uncertainty stated by the source.

For orientation: vapor or sublimation pressure means the equilibrium pressure above the liquid or solid. Turning to `O=Cc1ccco1` [2-furaldehyde], for the setting “394.7 K”, the “vapor or sublimation pressure” value was determined as 30 ± 0.2 kPa.
With `CC1CCC(=O)O1` (configuration not stated) [γ-valerolactone], the “vapor or sublimation pressure” value (434 K) is given as 29.9 ± 0.2 kPa; the “vapor or sublimation pressure” value (434.1 K) was determined as 30 ± 0.2 kPa; the “vapor or sublimation pressure” value (444.3 K) is 40.6 ± 0.2 kPa; the “vapor or sublimation pressure” value (459.3 K) worked out at 61.7 ± 0.2 kPa; the “vapor or sublimation pressure” value (469.3 K) worked out at 80 ± 0.2 kPa; the “vapor or sublimation pressure” value (479.4 K) came out at 102.6 ± 0.3 kPa.
